From patent publication US6492374B2, “Benzofuran derivatives, their preparation and use” (H. Lundbeck A/S, priority 1998, dated 2002)
Read-outs that look alike come from different tables or passages of the source.

Assays:
[1] = biological target: T1, cloned human 5-HT1A receptors (Homo sapiens, UniProt P08908); experiment: Inhibition of 3H-5-CT binding to human 5-HT1A receptors
T1 construct: expressed in transfected cells; host or cells: HeLa cells (HA7), stably transfected; cell homogenate
T1 sequence (P08908 1-422): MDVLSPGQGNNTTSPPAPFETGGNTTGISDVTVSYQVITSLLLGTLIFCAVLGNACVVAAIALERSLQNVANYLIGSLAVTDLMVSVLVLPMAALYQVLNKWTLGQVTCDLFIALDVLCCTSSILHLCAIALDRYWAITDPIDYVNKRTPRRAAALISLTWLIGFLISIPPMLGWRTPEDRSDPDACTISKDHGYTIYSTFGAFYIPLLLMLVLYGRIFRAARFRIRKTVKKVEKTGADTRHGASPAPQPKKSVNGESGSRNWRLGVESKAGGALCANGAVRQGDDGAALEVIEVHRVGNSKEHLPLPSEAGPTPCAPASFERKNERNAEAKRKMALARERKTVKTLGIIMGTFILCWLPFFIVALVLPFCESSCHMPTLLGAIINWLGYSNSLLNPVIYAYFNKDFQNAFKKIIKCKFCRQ
Experimental: Inhibition of ^3H-5CT Binding to Human 5-HT1A Receptors
Human 5-HT1A receptors (40 μg of cell homogenate) were incubated for 15 minutes at 37° C. in 50 mM Tris buffer at pH 7.7 in the presence of ^3H-5-CT. Non-specific binding was determined by including 10 μM of metergoline. The reaction was terminated by rapid filtration through Unifilter GF/B filters on a Tomtec Cell Harvester. Filters were counted in a Packard Top Counter.

[2] = system: serotonin reuptake (3H-5-HT uptake into whole rat brain synaptosomes); experiment: Inhibition of 3H-5-HT uptake into rat brain synaptosomes; type: biochemical
Experimental: Inhibition of ^3H-5HT Uptake Into Rat Brain Synaptosomes
Using this method, the ability of drugs to inhibit the accumulation of ^3H-5-HT into whole rat brain synaptosomes is determined in vitro.

[3] = cloned human 5-HT1A receptors expressed in HeLa cells (HA7)

IC50 [1, 3] | SMILES | further results
4.7 nM | N#Cc1ccc2c(c1)COC2(CCCN1CCN(c2cccc3[nH]ccc23)CC1)c1ccc(F)cc1 (stereo not drawn) [Compound 2m, 1-[3-[4-(1H-Indol-4-yl)piperazinyl]propyl]-1-(4fluorophenyl)-1,3-dihydroisobenzofuran-5carbonitrile] | 
15 nM | N#Cc1ccc2c(c1)COC2(CCCN1CCN(c2ccc3[nH]ccc3c2)CC1)c1ccc(F)cc1 (stereo not drawn) [Compound 2n, 1-[3-[4-(1H-Indol-5-yl)piperazinyl]propyl]-1-(4-fluorophenyl)-1,3-dihydroisobenzofuran-5-carbonitrile] | 
 | C=CCN(CCCc1cccc(OC)c1)CCCC1(c2ccc(F)cc2)OCc2cc(C#N)ccc21 (stereo not drawn) [Compound 4l] | Inhibition of serotonin reuptake % inhibition at 100 nM [2]: 27% inh. at 100 nM
 | COc1ccccc1OCCCN(C)CCCC1(c2ccc(F)cc2)OCc2cc(C#N)ccc21 (stereo not drawn) [Compound 4m] | Inhibition of serotonin reuptake % inhibition at 100 nM [2]: 74% inh. at 100 nM
 | C#CCN(CCCc1c[nH]c2ccccc12)CCCC1(c2ccc(F)cc2)OCc2cc(C#N)ccc21 (stereo not drawn) [Compound 4u, 1-[3-[[3-(1H-Indol-3-yl)propyl](prop-2-yl-1-yl)amino]propyl]-1-(4-fluorophenyl)-1,3-dihydroisobenzofuran-5-carbonitrile] | Inhibition of serotonin reuptake % inhibition at 100 nM [2]: 44% inh. at 100 nM
 | CN(CCCC1(c2ccc(F)cc2)OCc2cc(C#N)ccc21)CCc1c[nH]c2c(F)cccc12 (stereo not drawn) [Compound 12b, 1-[3-[[2-(7-Fluoro-1H-indol-3-yl)ethyl]methylamino]propyl]-1-(4-fluorophenyl)-1,3-dihydroisobenzofuran-5-carbonitrile] | IC50 [1]: 43 nM
19 nM | C=CCN(CCCc1c[nH]c2ccc(Cl)cc12)CCCC1(c2ccc(F)cc2)OCc2cc(C#N)ccc21 (stereo not drawn) [Compound 13k, 1-[3-[[3-(5-Chloro-1H-indol-3-yl)propyl](prop-2-en-1-yl)amino]propyl]-1-(4-fluorophenyl)-1,3-dihydroisobenzofuran-5-carbonitrile] | 
23 nM | N#Cc1ccc2c(c1)COC2(CCCN(CCCc1c[nH]c2ccccc12)CCOc1ccccc1)c1ccc(F)cc1 (stereo not drawn) [Compound 13p, 1-[3-[[3-(1H-Indol-3-yl)propyl](2-phenoxyethyl)amino]propyl]-1-(4-fluorophenyl)-1,3-dihydroisobenzofuran-5-carbonitrile] | 
12 nM | Cc1ccc2[nH]cc(CCN(CCCC3(c4ccc(F)cc4)OCc4cc(C#N)ccc43)CCOc3ccccc3)c2c1 (stereo not drawn) [Compound 13q, 1-[3-[[2-(5-Methyl-1H-indol-3-yl)ethyl](2-phenoxyethyl)amino]propyl]-1-(4-fluorophenyl)-1,3dihydroisobenzofuran-5-carbonitrile] | 
8.9 nM | N#Cc1ccc2c(c1)COC2(CCCN(CCOc1ccccc1)CCc1c[nH]c2ccc(F)cc12)c1ccc(F)cc1 (stereo not drawn) [Compound 13r, 1-[3-[[2-(5-Fluoro-1H-indol-3-yl)ethyl](2-phenoxyethyl)amino]propyl]-1-(4-fluorophenyl)-1,3-dihydroisobenzofuran-5-carbonitrile] | 
23 nM | Cc1ccc2[nH]cc(CCCN(CCCC3(c4ccc(F)cc4)OCc4cc(C#N)ccc43)CCOc3ccccc3)c2c1 (stereo not drawn) [Compound 13t, 1-[3-[[3-(5-Methyl-1H-indol-3-yl)propyl](2-phenoxyethyl)amino]propyl]-1-(4-fluorophenyl)-1,3-dihydroisobenzofuran-5-carbonitrile] | 
22 nM | N#Cc1ccc2c(c1)COC2(CCCN(CCCc1c[nH]c2ccc(F)cc12)CCOc1ccccc1)c1ccc(F)cc1 (stereo not drawn) [Compound 13u, 1-[3-[[3-(5-Fluoro-1H-indol-3-yl)propyl](2-phenoxyethyl)amino]propyl]-1-(4-fluorophenyl)-1,3-dihydroisobenzofuran-5-carbonitrile] | 
23 nM | N#Cc1ccc2c(c1)COC2(CCCN(CCOc1ccccc1)CCc1c[nH]c2c(F)cc(F)cc12)c1ccc(F)cc1 (stereo not drawn) [Compound 13v, 1-[3-[[2-(5,7-Difluoro-1H-indol-3-yl)ethyl](2-phenoxyethyl)amino]propyl]-1-(4-fluorophenyl)-1,3-dihydroisobenzofuran-5-carbonitrile] | 
26 nM | CC(C)c1ccc2[nH]cc(CCN(CCCC3(c4ccc(F)cc4)OCc4cc(C#N)ccc43)CCOc3ccccc3)c2c1 (stereo not drawn) [Compound 13x, 1-[3-[(2-Phenoxyethyl)[2-[5-(2-propyl)-1H-indol-3-yl]ethyl]amino]propyl]-1-(4-fluorophenyl)-1,3-dihydroisobenzofuran-5-carbonitrile] | 

SMILES | IC50 [1, 3] | further results
COc1ccccc1N1CCN(CCCC2(c3ccc(F)cc3)OCc3cc(C#N)ccc32)CC1 (stereo not drawn) [Compound 2a, 1-(4-Fluorophenyl)-1-[3-[4-(2-methoxyphenyl)piperazinyl]propyl]-1,3-dihydroisobenzofuran-5-carbonitrile] | 1 nM | 
COc1ccccc1OCCN(C)CCCC1(c2ccc(F)cc2)OCc2cc(C#N)ccc21 (stereo not drawn) [Compound 2b, 1-(4-Fluorophenyl)-1-[3-[[2-(2-methoxyphenoxy)ethyl]methylamino]propyl]-1,3-dihydroisobenzofuran-5-carbonitrile] | 6.4 nM | IC50 [2]: 40 nM
CN(CCCCc1c[nH]c2ccccc12)CCCC1(c2ccccc2)OCc2ccccc21 (stereo not drawn) [Compound 2e, 1-[3-[[4-(1H-Indol-3-yl)butyl]methylamino]propyl]1-phenyl-1,3-dihydroisobenzofuran] | 38 nM | IC50 [2]: 15 nM
CN(CCCc1c[nH]c2ccccc12)CCC[C@@]1(c2ccc(F)cc2)OCc2cc(C#N)ccc21 [Compound 2f, (S)-1-[3-[[3-(1H-Indol-3-yl)propyl]methylamino]propyl]-1-(4-fluorophenyl)-1,3-dihydroisobenzofuran-5-carbonitrile] | 8.6 nM | IC50 [2]: 14 nM
CN(CCCc1c[nH]c2ccccc12)CCCC1(c2ccccc2)OCc2ccccc21 (stereo not drawn) [Compound 2g, 1-[3-[[3-(1H-Indol-3-yl)propyl]methylamino]propyl]-1-phenyl-1,3-dihydroisobenzofuran] | 40 nM | IC50 [2]: 20 nM
CN(CCCc1cccc2c1OCCO2)CCCC1(c2ccc(F)cc2)OCc2ccccc21 (stereo not drawn) [Compound 2j, 5-[3-[[3-[1-(4-Fluorophenyl)-1,3-dihydroisobenzofuran-1-yl]propyl]methylamino]propyl]-1,4benzodioxane] | 41 nM | IC50 [2]: 9.7 nM
N#Cc1ccc2c(c1)COC2(CCCN1CCC(c2c[nH]c3cc(Cl)ccc23)CC1)c1ccc(F)cc1 (stereo not drawn) [Compound 2o, 1-[3-[4-(6-chloro-1H-Indol-3-yl)piperidinyl]propyl]-1-(4fluorophenyl)-1,3-dihydroisobenzofuran-5-carbonitrile] | 12 nM | 
CN(CCCC1(c2ccc(F)cc2)OCc2cc(C#N)ccc21)CCc1c[nH]c2ccccc12 (stereo not drawn) [Compound 4a, 1-[3-[[2-(1H-Indol-3-yl)ethyl]methylamino]propyl]-1-(4-fluorophenyl)-1,3-dihydroisobenzofuran-5-carbonitrile] | 23 nM | IC50 [2]: 54 nM
COc1cccc(CCN(C)CCCC2(c3ccc(F)cc3)OCc3cc(C#N)ccc32)c1 (stereo not drawn) [Compound 4b, 1-(4-Fluorophenyl)-1-[3-[[2-(3-methoxyphenyl)ethyl]methylamino]propyl]-1,3-dihydroisobenzofuran-5-carbonitrile] | 63 nM | Inhibition of serotonin reuptake % inhibition at 100 nM [2]: 59% inh. at 100 nM
